Assay results as given in PubChem BioAssay (NCI).
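These data come from cells grown in 96-well plates and exposed to compound for 48 hours at five concentrations. TGI denotes the concentration required for complete inhibition of growth.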

How the values were obtained:
Experiment in all cases: DTP human tumour cell line panel, 48 h
UACC-257 melanoma = system: UACC-257 melanoma
SF-539 CNS = system: SF-539 CNS
ACHN renal = system: ACHN renal
MCF7 breast = system: MCF7 breast
NCI-H460 lung = system: NCI-H460 lung
HS 578T breast = system: HS 578T breast
SK-MEL-28 melanoma = system: SK-MEL-28 melanoma
SNB-19 CNS = system: SNB-19 CNS
SK-MEL-2 melanoma = system: SK-MEL-2 melanoma
MDA-MB-231 breast = system: MDA-MB-231 breast

SMILES | TGI (UACC-257 melanoma) | TGI (SF-539 CNS) | TGI (ACHN renal) | TGI (MCF7 breast) | TGI (NCI-H460 lung) | TGI (HS 578T breast) | TGI (SK-MEL-28 melanoma) | TGI (SNB-19 CNS) | TGI (SK-MEL-2 melanoma) | TGI (MDA-MB-231 breast)
COC1CC(COCc2ccccc2)CC(OC)O1 (configuration not stated) | > 100 µM | > 100 µM | > 100 µM | > 100 µM | > 100 µM | > 100 µM |  |  |  | 
CC(=O)Nc1ccc2c3c(cc(O)c2c1)N(C(=O)CCCCCCC(=O)N1CC(CCl)c2c1cc(O)c1cc(NC(C)=O)ccc21)CC3CCl (configuration not stated) |  | 0.0413 µM | 0.0345 µM | 0.0472 µM |  |  | > 100 µM | 0.913 µM | < 0.01 µM | 
O=C1C(=O)N(c2cccc(C(F)(F)F)c2)C(=S)N1c1ccccc1 | 71.8 µM | 80.6 µM | 30.6 µM |  | 6.49 µM | > 100 µM | 88.8 µM | > 100 µM | 40.5 µM | 57.2 µM
CCC(=O)Nc1ccc(NC(C#N)c2cccc(Oc3ccccc3)c2)cc1 (configuration not stated) |  | 74.2 µM | > 100 µM | > 100 µM |  | > 100 µM | > 100 µM | > 100 µM | 94.6 µM | 
Cc1cc(/C=C/c2cc[n+](C)c3ccccc23)c(O)c2ncccc12 | 13.5 µM | 1.99 µM | 16.4 µM |  | 16.7 µM |  | 13.6 µM | 20.8 µM | 18.8 µM | 
O=C(Nc1ccc2[nH]c(C(=O)N3CC(CCl)c4c3cc([N+](=O)[O-])c3ccccc43)cc2c1)Nc1ccc2[nH]c(C(=O)N3CC(CCl)c4c3cc([N+](=O)[O-])c3ccccc43)cc2c1 (configuration not stated) | > 100 µM | > 100 µM | > 100 µM | > 100 µM | > 100 µM |  | > 100 µM | > 100 µM | > 100 µM | > 100 µM
CCOc1ccc(N/C(=C(/C(Cl)=C(/Cl)N2CCCCC2)[N+](=O)[O-])n2nnc3ccccc32)cc1 | 38.6 µM | 36.9 µM | 36 µM | 39.4 µM | 70.4 µM |  | 34.2 µM | 44 µM | 33.3 µM | 44.5 µM
COC1C(O)C(n2ncc3c(SC)nc(SC)nc32)OC1C(O)CO (configuration not stated) | > 55.8 µM | > 100 µM |  | > 100 µM | > 100 µM |  | > 100 µM | > 100 µM | > 100 µM | 
C=C(CCC/C(C)=C/C=C/[C@@H](C)CCCc1ccoc1)C[C@@H]1OC(=O)[C@H](C)[C@@H]1O | 15.1 µM | 19.4 µM | 16.2 µM | 25.2 µM | 29.8 µM |  | 19.1 µM | 17.8 µM | 17.7 µM | 16.9 µM
Nc1nc2ncc(CNc3ccc(C(=O)NC(CCC(=O)O)C(=O)O)cc3)nc2c(=O)[nH]1 (configuration not stated) | > 100 µM | > 100 µM | > 100 µM | > 100 µM | > 100 µM | > 100 µM | > 100 µM | > 100 µM | > 100 µM | 
Cc1c(N2CCN(C)CC2)nc2ccc(Cl)cc2c1-c1ccccc1 | 33 µM | 33.9 µM | 57.7 µM |  | 33.4 µM |  | 32.9 µM | 66.2 µM | 36.5 µM | 
O=c1ccn(COC(COCc2ccccc2)COCc2ccccc2)c(=O)[nH]1 | > 100 µM |  |  | > 100 µM | > 100 µM | > 100 µM | > 100 µM | > 100 µM | > 100 µM | > 100 µM
CC(C)NC(=O)OCc1c(CO)c2c(n1C)-c1ccccc1CC2 | > 100 µM | 57.3 µM |  | > 100 µM | 67.7 µM |  | 64.4 µM | > 100 µM | > 100 µM | 
CC(=O)OCC1OC(n2c(-c3ccccc3)c(C(C)=O)c(-c3cccc4ccccc34)c(C#N)c2=S)C(OC(C)=O)C(OC(C)=O)C1OC(C)=O (configuration not stated) | > 100 µM | > 100 µM | > 100 µM | > 100 µM | > 100 µM |  | > 100 µM | > 100 µM | > 100 µM | > 100 µM
C/C(CC(=O)Nc1ccc(C)c(C)c1)=N\NC(N)=O | > 100 µM | > 100 µM | > 100 µM |  | > 100 µM |  | > 100 µM |  | > 100 µM | 
COC(=O)C1(C#N)C(C)(C)N=C(c2ccccc2)C12CCCCC2 (configuration not stated) | > 100 µM | > 100 µM |  | > 100 µM | > 100 µM | > 100 µM | > 100 µM | > 100 µM | > 100 µM | > 100 µM
C=CCN(C(=O)OC(C)(C)C)[C@H](C)C(=O)N[C@@H](C)C(=O)OC |  | > 100 µM | > 100 µM | > 100 µM |  | > 100 µM | > 100 µM | > 100 µM | > 100 µM | > 100 µM
CCCCCCCCCCCCCCCCCCNC(=S)/N=C\C1=C(O)c2ccccc2C1=O | 33.6 µM | 36.7 µM | 26.2 µM | 29.5 µM | 26.2 µM | 35 µM | 30.7 µM | 35.9 µM |  | 24.6 µM
COc1ccccc1-c1cc(=O)c2cc3c(cc2[nH]1)OCO3 | > 100 µM | 70.6 µM | > 100 µM |  | > 100 µM |  | > 100 µM | > 100 µM | > 100 µM | 
Cn1c(=O)c2c(nc3n2CCCC(=O)N3CC(O)CCl)n(C)c1=O (configuration not stated) | > 100 µM |  | > 100 µM | > 100 µM | > 100 µM | > 100 µM | > 100 µM | > 100 µM | > 100 µM | 
CC[C@@]1(C)CCC2c3ccc(O)cc3CC[C@H]2C1C (some centres not stated) | 29.3 µM | 35.4 µM | 32.7 µM | 30.3 µM | 40.6 µM | 35.5 µM | 32 µM | 32.1 µM | 32.8 µM | 
COC1CN(C)C(=Nc2cccc3ccccc23)S1 (configuration not stated) | > 10 µM | > 10 µM | > 10 µM | > 10 µM |  | > 10 µM | > 10 µM | > 10 µM |  | > 10 µM
O=c1c(Br)cc2nc3ccccc3sc-2c1Br | > 85.4 µM | > 100 µM | > 100 µM |  | > 100 µM |  | > 100 µM | > 100 µM | > 100 µM | 
O=C(CN1CCOCC1)c1ccc2c(c1)oc(=O)n2CCN1CCOCC1 |  | > 100 µM |  | > 100 µM |  | > 100 µM | > 100 µM | > 100 µM | > 100 µM | > 100 µM
